Data reported in patent publication US20240083875A1, “DIHYDROISOQUINOLINYL DERIVATIVES” (UCB BIOPHARMA SRL, priority 2020, published 2024).

Key:
[1] = target: T1, dopamine D1 receptor (Homo sapiens, UniProt P21728); assay: cAMP HTRF potentiation assay (PAM, in the presence of EC20 dopamine); assay type: cell-based; settings: for Erel (%): maximal % potentiation relative to dopamine maximal response (100%), EC20 dopamine, LMtk cells expressing D1 receptor; for EC50: potentiation of cAMP levels with EC20 dopamine (1.1 nM), LMtk mouse fibroblast cells expressing D1 receptor
T1 construct: host or cells: LMtk (Ltk-) mouse fibroblast cells
Description: The potentiation assay measures the ability of compounds to increase the levels of cAMP produced by a low-threshold concentration of dopamine. The concentration of dopamine used ([EC20]) is designed to produce 20% stimulation compared to the maximal response (100%) seen with increasing the concentration of dopamine. To measure this potentiation increasing concentrations of the compound with the [EC20] of dopamine are incubated and the potentiation is measured as increases in cAMP production and concentration of compound which produces 50% of the potentiation of the cAMP levels is measured.
Cells were cultured at 37° C. in a humidified atmosphere of 5% CO2. Cells were grown in DMEM-F12+GlutaMAX™-I medium (GIBCO®, Invitrogen, Merelbeke, Belgium) containing 10% fetal bovine serum (BioWhittaker®, Lonza, Verviers, Belgium), 400 μg/mL Geneticin (GIBCO®), 100 IU/mL Penicillin and 100 IU/mL Streptomycin (Pen-Strep solution, BioWhittaker®).
The measurement of changes in intracellular cyclic adenosinemonophopshpate (cAMP) was determined using the HTRF cAMP dynamic assay kit from CisBio (Codolet, France). Using homogenous time-resolved fluoresence technology, the assay is based on competition between native cAMP produced by cells and cAMP labelled with the dye d2. The tracer binding is determined by an anti-cAMP antibody labeled with cryptate. The effects of the compound alone (agonism) was determined by performing the assay in the absence of dopamine, whilst the effect of the compound as a positive allosteric modulator (PAM) was determined in the presence of an EC20 concentration of dopamine. Cells (20,000 per well) are incubated in 384 plates for 1 hour at room temperature in a final volume of 20 μLHBSS (Lonza, with calcium, magnesium and HEPES buffer 20 mM, pH 7.4) containing: isobutyl methylxanthine (Sigma, 0.1 mM final), varying concentrations of test compound (typically 10^−9.5M to […]) in the presence and absence of dopamine (1.1 nM final). The reaction is then terminated and the cells lysed by adding the d2 detection reagent in lysis buffer (10 microL) and the cryptate reagent in lysis buffer (10 microl) according to manufacturer's instructions. This is then incubated for a further 60 min at room temperature and changes in HTRF fluorescent emission ratio determined according to manufacturer's instructions using an Envision plate reader (Perkin Elmer, Zaventem, Belgium) with laser excitation. All incubations were performed in duplicate and results were compared to a concentration-effect curve to dopamine. (10^−11 M to 10^−6 M).
Data was analyzed using Excel and PRISM (GraphPad Software) to obtain pEC50 and Erel using the 4-parameter logistic equation (DeLean et al, 1978) where Erel is the fitted maximal response of the test compound minus basal expressed as a percentage relative to that obtained with dopamine which was defined as 100%.
The pEC50 of a compound is the −log10 of the concentration of the compound which produces 50% of the potentiation of the cAMP levels.
The Erel is the relative efficacy, defined as the maximal % potentiation produced by the compound compared to the maximal response produced by increasing concentrations of dopamine (Erel of 1=dopamine maximum response), has been measured.

[2] = target: T2, human GABAA receptor α1, β2 and γ2 subunits (Homo sapiens, UniProt P14867+P18507+P47870); assay: Automated patch clamp studies on the GABAA receptor (IonFlux HT); assay type: cell-based; settings: 10 μM compound; 15 μM GABA as agonist; CHO-K1 cells expressing human GABAA α1β2γ2
T2 construct: expressed in transfected cells
Description: CHO-K1 cells stably expressing human GABAA receptor α1, β2 and γ2 subunits were used. The cells were harvested using trypsin and maintained in serum-free medium at room temperature. The cells were washed and re-suspended in extracellular solution before testing.
Experiments on human GABAA (α1β2γ2) channels were conducted using an automated patch clamp assay (IonFlux™ HT). Compounds were tested at 3 concentrations (0.1, 1, and 10 μM) in 3 to 4 cells. The external solution for recording GABAA currents was composed of sodium chloride 137 mM, potassium chloride 4 mM, calcium chloride 1.8 mM, magnesium chloride 1 mM, HEPES 10 mM, and glucose 10 mM. Both external and internal solutions were titrated with NaOH or KOH to obtain a pH of 7.35 or 7.3, respectively. The internal pipette solution contained potassium fluoride 70 mM, potassium chloride 60 mM, sodium chloride 70 mM, HEPES 5 mM, EGTA 5 mM, and Magnesium ATP 4 mM. The final concentration of vehicle used to dilute compounds was 0.33% DMSO in each well. Bicuculline (0.032 to 100 μM) was used as positive control inhibitor. GABA (15 μM) was used as agonist. All recordings were obtained from a holding potential of −60 mV.
The compound addition sequence was the following: one addition of the EC80 concentration of GABA was added to establish baseline response. Each concentration of compound was applied for 30 seconds followed by the addition of 15 μM GABA in the presence of the compound for 2 seconds. The process was repeated with the next ascending concentration of compound. Peak inward currents in response to the GABA additions in the presence of a single concentration of compound were measured. All compound data have been normalized to the baseline peak current induced by addition of 15 μM GABA for 2 seconds.

T1 sequence (P21728 whole entry): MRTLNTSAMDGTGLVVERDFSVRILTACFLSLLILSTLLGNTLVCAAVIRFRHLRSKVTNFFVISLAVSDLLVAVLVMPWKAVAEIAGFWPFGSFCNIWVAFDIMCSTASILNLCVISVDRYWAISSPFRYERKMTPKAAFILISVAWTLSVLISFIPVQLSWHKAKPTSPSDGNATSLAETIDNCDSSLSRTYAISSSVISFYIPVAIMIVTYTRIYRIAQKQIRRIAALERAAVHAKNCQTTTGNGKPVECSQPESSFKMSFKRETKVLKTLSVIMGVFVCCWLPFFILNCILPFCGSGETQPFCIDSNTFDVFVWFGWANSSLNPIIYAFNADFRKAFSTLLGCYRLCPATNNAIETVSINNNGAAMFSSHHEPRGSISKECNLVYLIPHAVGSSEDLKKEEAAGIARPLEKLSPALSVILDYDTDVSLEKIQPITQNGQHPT
T2 sequence (P14867 28-456): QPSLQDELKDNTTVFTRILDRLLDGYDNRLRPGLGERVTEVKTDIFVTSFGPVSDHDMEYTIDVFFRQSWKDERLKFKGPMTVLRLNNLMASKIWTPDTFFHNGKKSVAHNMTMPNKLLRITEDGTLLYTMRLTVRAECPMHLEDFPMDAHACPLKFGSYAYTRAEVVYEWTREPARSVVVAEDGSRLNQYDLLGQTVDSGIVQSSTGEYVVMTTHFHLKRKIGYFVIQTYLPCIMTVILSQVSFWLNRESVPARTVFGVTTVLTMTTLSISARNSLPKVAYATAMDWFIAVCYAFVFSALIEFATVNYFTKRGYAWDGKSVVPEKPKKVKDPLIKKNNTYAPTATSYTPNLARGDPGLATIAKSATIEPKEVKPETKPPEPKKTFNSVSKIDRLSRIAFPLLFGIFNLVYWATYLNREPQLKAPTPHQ
T2 sequence (P47870 25-512 limits assumed): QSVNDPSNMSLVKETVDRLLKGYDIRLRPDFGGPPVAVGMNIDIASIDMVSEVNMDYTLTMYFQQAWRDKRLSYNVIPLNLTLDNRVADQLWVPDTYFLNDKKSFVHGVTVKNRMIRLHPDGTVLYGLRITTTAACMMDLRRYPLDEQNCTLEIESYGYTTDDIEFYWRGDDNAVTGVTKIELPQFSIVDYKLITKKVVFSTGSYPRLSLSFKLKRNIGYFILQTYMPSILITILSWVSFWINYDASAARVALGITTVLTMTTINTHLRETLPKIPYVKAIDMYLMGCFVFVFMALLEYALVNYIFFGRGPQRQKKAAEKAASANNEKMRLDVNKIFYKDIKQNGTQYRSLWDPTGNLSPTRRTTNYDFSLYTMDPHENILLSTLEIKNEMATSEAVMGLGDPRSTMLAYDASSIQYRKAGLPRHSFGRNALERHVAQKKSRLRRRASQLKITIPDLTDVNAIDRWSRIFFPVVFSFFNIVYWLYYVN
T2 sequence (P18507 40-475): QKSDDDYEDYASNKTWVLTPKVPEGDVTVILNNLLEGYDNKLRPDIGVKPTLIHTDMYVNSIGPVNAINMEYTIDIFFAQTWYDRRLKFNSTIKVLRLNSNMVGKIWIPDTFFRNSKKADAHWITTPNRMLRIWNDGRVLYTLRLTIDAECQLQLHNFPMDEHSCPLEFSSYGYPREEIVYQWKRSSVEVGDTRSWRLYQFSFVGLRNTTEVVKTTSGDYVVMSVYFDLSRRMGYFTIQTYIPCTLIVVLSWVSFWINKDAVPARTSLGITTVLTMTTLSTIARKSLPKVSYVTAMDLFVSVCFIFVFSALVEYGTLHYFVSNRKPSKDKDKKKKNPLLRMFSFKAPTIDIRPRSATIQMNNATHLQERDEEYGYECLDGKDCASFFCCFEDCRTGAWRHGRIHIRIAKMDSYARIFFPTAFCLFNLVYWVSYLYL

Structure (SMILES)	Erel (%) [1] [%]	EC50 [1] [nM]	inhibition at 10 µM [2] [%]
C[C@H]1c2cccc(-c3cnn(C)c3)c2C[C@H](CO)N1C(=O)Cc1c(Cl)ccc2c1c(Cl)nn2C [Example 1, 2-(3,5-dichloro-1-methyl-indazol-4-yl)-1-[(1S,3R)-3-(hydroxymethyl)-1-methyl-5-(1-methylpyrazol-4-yl)-3,4-dihydro-1H-isoquinolin-2-yl]ethanone]	74	12.6	2.7
C[C@H]1c2cccc(-c3cn[nH]c3)c2C[C@H](CO)N1C(=O)Cc1c(Cl)ccc2c1c(Cl)nn2C [Example 2, 2-(3,5-dichloro-1-methyl-indazol-4-yl)-1-[(1S,3R)-3-(hydroxymethyl)-1-methyl-5-(1H-pyrazol-4-yl)-3,4-dihydro-1H-isoquinolin-2-yl]ethanone]	71	6.31	0
C[C@H]1c2cccc(-c3cn[nH]c3)c2C[C@H](CO)N1C(=O)Cc1c(Cl)ccc2[nH]nc(Cl)c12 [Example 3, 2-(3,5-dichloro-1H-indazol-4-yl)-1-[(1S,3R)-3-(hydroxymethyl)-1-methyl-5-(1H-pyrazol-4-yl)-3,4-dihydro-1H-isoquinolin-2-yl]ethanone]	61	6.31	7.8
C[C@H]1c2cccc(-c3cnn(C)c3)c2C[C@H](CO)N1C(=O)Cc1c(Cl)ccc2[nH]nc(Cl)c12 [Example 4, 2-(3,5-dichloro-1H-indazol-4-yl)-1-[(1S,3R)-3-(hydroxymethyl)-1-methyl-5-(1-methylpyrazol-4-yl)-3,4-dihydro-1H-isoquinolin-2-yl]ethanone]	63	7.94	10.1
